{
  "source": "patent US20060172004A1",
  "about": "“Oral compositions for the stimulation of gastric acid secretion comprising pentagastrin” (priority 2003, published 2006)",
  "key": {"[1]": {"biological_target": "T1, gastrin receptor (CCKB) (Rattus norvegicus, UniProt P30553)", "T1 construct": "from tissue; host or cells: stomach of live anesthetized pylorus-ligated rats (in vivo)", "T1 sequence (P30553 1-452)": "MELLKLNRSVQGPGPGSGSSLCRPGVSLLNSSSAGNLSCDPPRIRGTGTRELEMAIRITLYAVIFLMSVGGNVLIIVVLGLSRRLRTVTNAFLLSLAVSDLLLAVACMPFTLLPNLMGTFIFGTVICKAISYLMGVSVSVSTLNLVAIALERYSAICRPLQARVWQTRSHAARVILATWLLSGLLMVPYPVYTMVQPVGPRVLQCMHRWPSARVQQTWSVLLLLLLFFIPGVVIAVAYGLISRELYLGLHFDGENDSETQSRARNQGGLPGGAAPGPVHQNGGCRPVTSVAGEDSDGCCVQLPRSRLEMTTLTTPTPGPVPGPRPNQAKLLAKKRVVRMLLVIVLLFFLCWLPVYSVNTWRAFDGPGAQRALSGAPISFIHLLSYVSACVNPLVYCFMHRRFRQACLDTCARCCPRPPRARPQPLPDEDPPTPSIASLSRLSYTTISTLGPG", "assay": "Effect of CCKB antagonist on PG-mediated gastric acid secretion in pylorus-ligated rats", "format": "in vivo", "description": "As PG is a gastrin hormone homologue, its local effect is thought to be mediated via gastrin pathway, i.e. an activation of gastrin receptor (CCKB). To test this hypothesis the effect of the specific CCKB antagonist (Itriglumide) on PG-mediated acid secretion in rats was examined.\nIn this study, rats were anesthetized with Ketamine and Domitor mixture and provided with 20 mg/kg of Itriglumide that was administered intraduodenally (i.d.). Following 15 min, gastric pylorus was ligated and 300 μg/kg PG was administered into the stomach (i.g.). After 30 min, gastric juice was obtained, centrifuged and the volume and pH of the supernatants were measured. The acid concentration (titratable acidity) was analyzed by titration the gastric juice samples with NaOH and total acid output expressed in […] HCl was calculated by multiplying the sample volume by the acid concentration."}, "[2]": {"conditions": "for radioactivity in systemic circulation: oral dose 50×10^6 CPM; for Radioactivity in systemic circulation % of Total Radioactivity/Dose: 50 μg/kg", "description": "The bioavailability of PG in rats following oral administration of ^3H-labeled PG was studied. Male Wister Hanover rats were anaesthetized and catheters were positioned in the jugular vein for blood sampling. Rats were treated orally with ^3H-PG at a dose of 50 μg/kg (50×10^6 CPM per dose) and blood samples were drawn at 5, 15 and 30 minutes. The radioactivity in blood samples at each time point was determined by a β-counter."}, "[3]": {"tested_on": "gastric acid secretion", "assay": "Gastric pH and acid output after tetragastrin s.c. or per os in pylorus-ligated rats", "format": "in vivo, Wister rats", "conditions": "for acid secretion: 30 min, titration with NaOH to pH 7; for gastric pH: gastric juice collected 30 min after treatment", "description": "The effect of tetragastrin (Trp-Met-Asp-PheNH2) administered orally in stimulating gastric acid secretion was examined. […] Tetragastrin was administered either s.c. (25 μg/kg) or per os (206 μg/kg) and gastric juice was collected 30 min following treatment. Acid concentration was measured by titration the samples with NaOH to pH=7. Results are expressed as means±SEM of 3-4 animals."}},
  "note": "Where two headings read alike, the source gives them in different places.",
  "data": [
    {"smiles": "Cc1cc(C)c(NC(=O)C[C@H](CC(=O)O)c2cccc3ccccc23)c(C(=O)N2CCC3(CCCC3)CC2)c1", "note": "[CCKB ant., Itriglumide]", "values": [
      {"measurement": "Acid Output MEAN", "setting": "[1]; CCKB ant. i.d. 20 mg/kg alone, pylorus-ligated rats", "value": 15.24, "unit": "pEq HCl"},
      {"measurement": "effect of antagonist on PG-mediated gastric acid secretion", "setting": "[1]; intraduodenal 20 mg/kg, PG 300 μg/kg i.g., rats", "value": "inhibits the local effect of PG on gastric acid secretion"}
    ]},
    {"smiles": "CSCC[C@H](NC(=O)[C@H](Cc1c[nH]c2ccccc12)NC(=O)CCNC(=O)OC(C)(C)C)C(=O)N[C@@H](CC(=O)O)C(=O)N[C@@H](Cc1ccccc1)C(N)=O", "note": "[^3H-PG]", "values": [
      {"measurement": "radioactivity in systemic circulation", "setting": "[2]; 5 min", "value": "748×10^3 CPM"},
      {"measurement": "Radioactivity in systemic circulation % of Total Radioactivity/Dose", "setting": "[2]; 5 min following oral administration", "value": 1.43, "unit": "%"},
      {"measurement": "radioactivity in systemic circulation", "setting": "[2]; 15 min", "value": "982×10^3 CPM"},
      {"measurement": "Radioactivity in systemic circulation % of Total Radioactivity/Dose", "setting": "[2]; 15 min following oral administration", "value": 1.67, "unit": "%"},
      {"measurement": "radioactivity in systemic circulation", "setting": "[2]; 30 min", "value": "832×10^3 CPM"},
      {"measurement": "Radioactivity in systemic circulation % of Total Radioactivity/Dose", "setting": "[2]; 30 min following oral administration", "value": 1.42, "unit": "%"},
      {"measurement": "share of total orally administered radioactivity that entered the systemic circulation", "setting": "[2]; oral 50 μg/kg (50×10^6 CPM), over 5-30 min", "value": "approximately 1.5%"}
    ]},
    {"smiles": "CSCC[C@H](NC(=O)[C@@H](N)Cc1c[nH]c2ccccc12)C(=O)N[C@@H](CC(=O)O)C(=O)N[C@@H](Cc1ccccc1)C(N)=O", "note": "[tetragastrin, Trp-Met-Asp-PheNH2]", "values": [
      {"measurement": "local stimulation of gastric acid secretion compared to PG", "setting": "[3]; equimolar dose, oral", "value": "less prominent as compared to PG"},
      {"measurement": "acid secretion", "setting": "[3]; per os 206 μg/kg", "value": "elevated acid secretion"},
      {"measurement": "gastric pH", "setting": "[3]; per os 206 μg/kg", "value": "reduced gastric pH"},
      {"measurement": "acid secretion", "setting": "[3]; s.c. 25 μg/kg", "value": "elevated acid secretion"},
      {"measurement": "gastric pH", "setting": "[3]; s.c. 25 μg/kg", "value": "reduced gastric pH"}
    ]}
  ]
}
